The values that follow come from US7772430B2, “Derivatives of arylsulfonamido-substituted hydroxamic acid as matrix metalloproteinases inhibitors” (Protera S.R.L., priority 2004, dated 2010).

Data set [1] has as its target T1, Catalytic domain of MMP-12 (Homo sapiens, UniProt P39900).
T1 construct: Catalytic domain of MMP-12 was cloned, expressed and purified; made in house
The data set can be described thus: In vitro inhibition test, fluorogenic peptide substrate (Knight et al.). Particulars: 298 K, pH 7, 1% DMSO; stated in words only. It is filed as biochemical. Here is the method: The compounds of the invention, prepared as above described, were tested in vitro according to the method reported by Knight et al. in FEBS Lett 1992, 296 (3):263.
Catalytic domain of MMP-12 was cloned, expressed and purified according to the procedure reported in Banci et al. Journal of Molecular Catalysis A: Chemical, 2003, Vol. 204-205, pp. 401-408). Preparation of catalytic domain of MMP-1 was performed as follows: proMMP-1 cDNA was cloned into the pET21 (Novagen) expression vector. The recombinant vector was transformed into Escherichia Coli BL21 cells. The bacteria were grown in 2 XYt media and incubated at 37° C. When the cells reached the exponential growth phase, the expression of the protein was induced by adding 0.5 mM of IPTG and the incubation was continued further for four hours. […]
The protein was maintained in presence of inhibitor for 5 min before the substrate was added. Subsequently, after addition of peptidic substrate, the increase of fluorescence intensity was measured vs. time (excitation 328 nm, emission 393 nm) using a Varian/Eclipse fluorimeter.
Matrix metalloproteinases cleave peptidic bond glycine-leucine separating coumarinic group from 2,4-dinitrophenol and so causing a high increase of fluorescence intensity under the conditions indicated above. […]

Another data set can be described thus: Solubility in water. The note with it: stated in words only. It is filed as physicochemical.

The structures appear in SMILES notation.

T1 sequence (P39900 106-263 limits assumed): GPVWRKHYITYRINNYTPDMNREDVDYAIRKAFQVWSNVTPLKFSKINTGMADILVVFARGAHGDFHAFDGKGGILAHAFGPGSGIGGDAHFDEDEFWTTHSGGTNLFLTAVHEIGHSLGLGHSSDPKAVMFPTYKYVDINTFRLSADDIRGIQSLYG

Take `COc1ccc(S(=O)(=O)NC(CO)C(=O)NO)cc1` (centres unmarked) [Example 7, 3,N-dihydroxy-2-[(4-methoxy-benzenesulfonyl)amino]-propionamide]: in data set [1], the “ability to inhibit MMP-12 (from IC50 data)” value is “do not have the inhibition activity and selectivity of present compounds of formula (I)”. Further, the solubility in water result in the data set “Solubility in water” is given as “good solubility”.
